{"source": "the NIST ThermoML archive (doi:10.1016/j.jct.2005.08.007)", "conditions": "Crystal, Calculated from knudsen effusion weight loss", "note": "Values joined by “and” are separate entries in the source; they are usually repeats but may differ in a detail not shown here. Equal entries are not always repeated. ± gives the expanded uncertainty stated by the source."}
{"smiles": "O=[N+]([O-])c1cccc2ccccc12", "note": "[1-nitronaphthalene]", "values": [{"measurement": "vapor or sublimation pressure", "setting": "305.14 K", "result": "0.0001735 ± 8.7e-06 kPa and 0.0001744 ± 8.7e-06 kPa and 0.0001738 ± 8.7e-06 kPa"}, {"measurement": "vapor or sublimation pressure", "setting": "307.15 K", "result": "0.0002252 ± 1.1e-05 kPa and 0.0002215 ± 1.1e-05 kPa and 0.000218 ± 1.1e-05 kPa"}, {"measurement": "vapor or sublimation pressure", "setting": "309.16 K", "result": "0.0002813 ± 1.4e-05 kPa and 0.0002824 ± 1.4e-05 kPa and 0.0002776 ± 1.4e-05 kPa"}, {"measurement": "vapor or sublimation pressure", "setting": "311.15 K", "result": "0.0003559 ± 1.8e-05 kPa and 0.0003531 ± 1.8e-05 kPa and 0.0003518 ± 1.8e-05 kPa"}, {"measurement": "vapor or sublimation pressure", "setting": "313.15 K", "result": "0.0004632 ± 2.3e-05 kPa and 0.0004566 ± 2.3e-05 kPa and 0.0004531 ± 2.3e-05 kPa"}, {"measurement": "vapor or sublimation pressure", "setting": "315.13 K", "result": "0.0005799 ± 2.9e-05 kPa and 0.0005723 ± 2.9e-05 kPa and 0.0005739 ± 2.9e-05 kPa"}, {"measurement": "vapor or sublimation pressure", "setting": "317.13 K", "result": "0.0006969 ± 3.5e-05 kPa and 0.0007016 ± 3.5e-05 kPa and 0.0006949 ± 3.5e-05 kPa"}, {"measurement": "vapor or sublimation pressure", "setting": "319.17 K", "result": "0.0008754 ± 4.4e-05 kPa and 0.0008956 ± 4.5e-05 kPa and 0.0008803 ± 4.4e-05 kPa"}, {"measurement": "vapor or sublimation pressure", "setting": "321.14 K", "result": "0.001127 ± 0.00012 kPa and 0.001114 ± 0.00011 kPa and 0.001108 ± 0.00011 kPa"}]}
{"smiles": "O=[N+]([O-])c1c2ccccc2cc2ccccc12", "note": "[9-nitroanthracene]", "values": [{"measurement": "vapor or sublimation pressure", "setting": "361.11 K", "result": "0.00019 ± 1e-05 kPa and 0.000196 ± 1e-05 kPa and 0.000195 ± 1e-05 kPa"}, {"measurement": "vapor or sublimation pressure", "setting": "363.08 K", "result": "0.000236 ± 1.2e-05 kPa and 0.000238 ± 1.2e-05 kPa"}, {"measurement": "vapor or sublimation pressure", "setting": "365.26 K", "result": "0.000291 ± 1.5e-05 kPa and 0.000294 ± 1.5e-05 kPa"}, {"measurement": "vapor or sublimation pressure", "setting": "367.09 K", "result": "0.000354 ± 1.8e-05 kPa and 0.000339 ± 1.7e-05 kPa and 0.000342 ± 1.7e-05 kPa"}, {"measurement": "vapor or sublimation pressure", "setting": "369.04 K", "result": "0.000431 ± 2.2e-05 kPa and 0.000439 ± 2.2e-05 kPa and 0.000427 ± 2.1e-05 kPa"}, {"measurement": "vapor or sublimation pressure", "setting": "371.26 K", "result": "0.000532 ± 2.7e-05 kPa and 0.000526 ± 2.6e-05 kPa and 0.000534 ± 2.7e-05 kPa"}, {"measurement": "vapor or sublimation pressure", "setting": "373.26 K", "result": "0.00064 ± 3.2e-05 kPa and 0.000643 ± 3.2e-05 kPa and 0.000647 ± 3.2e-05 kPa"}, {"measurement": "vapor or sublimation pressure", "setting": "375 K", "result": "0.000772 ± 3.9e-05 kPa and 0.000773 ± 3.9e-05 kPa and 0.000761 ± 3.8e-05 kPa"}, {"measurement": "vapor or sublimation pressure", "setting": "377.06 K", "result": "0.000928 ± 4.6e-05 kPa and 0.000924 ± 4.6e-05 kPa"}]}
